{
  "source": "patent US11021481B2",
  "about": "“Substituted isoindolin-1-ones and 2,3-dihydro-1h-pyrrolo[3,4-c]pyridin-1-ones as HPK1 antagonists” (Nimbus Saturn, Inc., priority 2019, dated 2021)",
  "data": [
    {"molecular_target": "HPK1 (Homo sapiens (Human), UniProt Q92918)", "sequence (Q92918 whole entry)": "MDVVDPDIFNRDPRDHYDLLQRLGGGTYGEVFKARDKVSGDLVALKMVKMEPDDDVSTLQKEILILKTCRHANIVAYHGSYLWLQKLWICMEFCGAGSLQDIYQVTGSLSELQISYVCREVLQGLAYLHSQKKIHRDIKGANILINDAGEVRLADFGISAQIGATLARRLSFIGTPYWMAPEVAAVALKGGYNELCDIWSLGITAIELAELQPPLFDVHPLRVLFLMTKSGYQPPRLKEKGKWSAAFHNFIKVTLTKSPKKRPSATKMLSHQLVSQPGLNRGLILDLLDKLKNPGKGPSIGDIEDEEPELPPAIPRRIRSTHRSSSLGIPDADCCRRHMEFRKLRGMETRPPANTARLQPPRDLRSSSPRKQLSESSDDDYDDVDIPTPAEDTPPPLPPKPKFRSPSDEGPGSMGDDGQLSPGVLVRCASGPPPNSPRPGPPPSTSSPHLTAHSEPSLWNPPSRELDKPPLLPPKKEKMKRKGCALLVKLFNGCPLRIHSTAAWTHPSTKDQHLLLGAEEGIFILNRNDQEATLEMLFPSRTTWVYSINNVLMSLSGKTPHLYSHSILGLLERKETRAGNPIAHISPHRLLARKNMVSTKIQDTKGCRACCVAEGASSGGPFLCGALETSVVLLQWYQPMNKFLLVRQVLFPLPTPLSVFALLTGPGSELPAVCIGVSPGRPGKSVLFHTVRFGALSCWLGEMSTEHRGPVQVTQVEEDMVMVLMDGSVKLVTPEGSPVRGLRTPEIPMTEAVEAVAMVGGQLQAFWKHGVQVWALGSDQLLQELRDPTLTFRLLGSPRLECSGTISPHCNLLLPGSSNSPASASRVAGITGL", "assay": "HPK1 biochemical enzyme assay (microfluidic mobility shift assay)", "details": "1.5 nM HPK1, ATP 1 mM final, 30 min preincubation, 60 min at RT, Caliper EZ Reader; read-out: HPK1 1000UMATP caliper IC50", "method_in_brief": "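Mobility shift readout of HPK1 activity after a 60 min RT reaction with 1 mM ATP, 1 μM substrate and 5 mM MgCl2. Enzyme/substrate mix was first exposed to compounds for 30 min, using ten-point curves topping at 3 μM final.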", "units": {"IC50": "nM"}, "values": [
      {"compound": "Cn1ccc2c(-c3ccc(Nc4ccc(N5CCOCC5)cn4)c4c3CNC4=O)ccnc21", "note": "[I-110, 4-(1-methylpyrrolo [2,3-b]pyridin-4-yl)-7-[(5-morpholino-2-pyridyl)amino] isoindolin-1-one]", "IC50": "< 100"},
      {"compound": "Cc1cnc2c(-c3ccc(Nc4ccc(N5CCN(C)CC5)cn4)c4c3CNC4=O)cnn2c1", "note": "[I-111, 7-[[5-(4-methylpiperazin-1-yl)-2-pyridyl]amino]-4-(6-methylpyrazolo[1,5-a]pyrimidin-3-yl)isoindolin-1-one]", "IC50": "< 100"},
      {"compound": "CN1CCN(c2ccc(Nc3ccc(-c4cnn5cccnc45)c4c3C(=O)NC4)nc2)CC1", "note": "[I-112, 7-[[5-(4-methylpiperazin-1-yl)-2-pyridyl]amino]-4-pyrazolo[1,5-a]pyrimidin-3-yl-isoindolin-1-one]", "IC50": "< 100"},
      {"compound": "CN1CCN(c2ccc(Nc3ccc(-c4cnn5ccncc45)c4c3C(=O)NC4)nc2)CC1", "note": "[I-113, 7-[[5-(4-methylpiperazin-1-yl)-2-pyridyl]amino]-4-pyrazolo[1,5-a]pyrazin-3-yl-isoindolin-1-one]", "IC50": "< 100"},
      {"compound": "Cn1cnc2nccc(-c3ccc(Nc4ccc(N5CCNCC5)cn4)c4c3CNC4=O)c21", "note": "[I-114, 4-(1-methylimidazo [4,5-b]pyridin-7-yl)-7-[(5-piperazin-1-yl-2-pyridyl)amino] isoindolin-1-one]", "IC50": "> 1000"},
      {"compound": "Cn1ccc2c(-c3ccc(Nc4cc(C5CCNCC5)n[nH]4)c4c3CNC4=O)ccnc21", "note": "[I-115, 4-(1-methylpyrrolo [2,3-b]pyridin-4-yl)-7-[[3-(4-piperidyl)-1H-pyrazol-5-yl]amino]isoin-dolin-1-one]", "IC50": "< 100"},
      {"compound": "Cn1ccc2c(-c3ccc(Nc4ccc(N5CCC[C@H](O)C5)cn4)c4c3CNC4=O)ccnc21", "note": "[I-116, 7-[[5-[(3S)-3-hydroxy-1-piperidyl]-2-pyridyl]amino]-4-(1-methylpyrrolo [2,3-b]pyridin-4-yl)isoindolin-1-one]", "IC50": "< 100"},
      {"compound": "O=C1NCc2c(-c3cnn4cccnc34)ccc(Nc3ccc(N4CCNCC4)cn3)c21", "note": "[I-117, 7-[(5-piperazin-1-yl-2-pyridyl)amino]-4-pyrazolo[1,5-a]pyrimidin-3-yl-isoindolin-1-one]", "IC50": "< 100"},
      {"compound": "CN1CCCc2c(-c3ccc(Nc4ccc(N5CCNCC5)cn4)c4c3CNC4=O)ccnc21", "note": "[I-118, 4-(8-methyl-6.7-dihydro-5H-1,8-naphthyridin-4-yl)-7-[(5-piperazin-1-yl-2-pyridyl)amino] isoindolin-1-one]", "IC50": "100 to 1000"},
      {"compound": "O=C1NCc2c(-c3ccnc4c3ccn4C(F)F)ccc(Nc3ccc(N4CCNCC4)cn3)c21", "note": "[I-119, 4-[l-(difluorometh-yl)pyrrolo[2,3-b]pyridin-4-yl]-7-[(5-piperazin-1-yl-2-pyridyl)amino] isoindolin-1-one]", "IC50": "< 100"},
      {"compound": "N#Cc1ccn2c(-c3ccc(Nc4ccc(N5CCNCC5)cn4)c4c3CNC4=O)cnc2c1", "note": "[I-120]", "IC50": "< 100"},
      {"compound": "Cn1ccc2c(-c3ccc(Nc4ccc(N5CCC[C@@H](O)C5)cn4)c4c3CNC4=O)ccnc21", "note": "[I-121, 7-[[5-[(3R)-3-hydroxy-1-piperidyl]-2-pyridyl]amino]-4-(1-methylpyrrolo [2,3-b]pyridin-4-yl)isoindolin-1-one]", "IC50": "< 100"},
      {"compound": "Cn1cnc2c(-c3ccc(Nc4ccc(N5CCNCC5)cn4)c4c3CNC4=O)cccc21", "note": "[I-122, 4-(1-methylbenzimidazol-4-yl)-7-[(5-piperazin-1-yl-2-pyridyl)amino] isoindolin-1-one]", "IC50": "< 100"},
      {"compound": "Cn1ccc2c(-c3ccc(Nc4ccc(N5CCNCC5)cn4)c4c3CNC4=O)ncnc21", "note": "[I-123, 4-(7-methylpyrrolo [2,3-d]pyrimidin-4-yl)-7-[(5-piperazin-1-yl-2-pyridyl)amino] isoindolin-1-one]", "IC50": "< 100"},
      {"compound": "Cc1ccn2c(-c3ncc(Nc4ccc(N5CCNCC5)cn4)c4c3CNC4=O)cnc2c1", "note": "[I-124, 4-(7-methylimidazo [1,2-a]pyridin-3-yl)-7-[(5-piperazin-1-yl-2-pyridyl)amino]-2,3-dihydropyrrolo [3,4-c]pyridin-1-one]", "IC50": "< 100"},
      {"compound": "Cc1ccn2c(-c3ccc(Nc4ccc(N5CCC(O)CC5)cn4)c4c3CNC4=O)cnc2c1", "note": "[I-126, 7-[[5-(4-hydroxy-1-piperidyl)-2-pyridyl]amino]-4-(7-methylimidazo [1,2-a]pyridin-3-yl)isoindolin-1-one]", "IC50": "< 100"},
      {"compound": "O=C1NCc2c(-c3ccnc4ccnn34)ccc(Nc3ccc(N4CCNCC4)cn3)c21", "note": "[I-127, 7-[(5-piperazin-1-yl-2-pyridyl)amino]-4-pyrazolo[1,5-a]pyrimidin-7-yl-isoindolin-1-one]", "IC50": "> 1000"},
      {"compound": "CN1CCN(c2ccc(Nc3cnc(-c4c(F)cnc5c4ccn5C)c4c3C(=O)NC4)nc2)CC1", "note": "[I-128]", "IC50": "< 100"},
      {"compound": "Cn1nc(Nc2ccc(-c3ccnc4c3ccn4C)c3c2C(=O)NC3)cc1C1CCOCC1", "note": "[I-129, 4-(1-methylpyrrolo [2,3-b]pyridin-4-yl)-7-[(1-methyl-5-tetrahydropy-ran-4-yl-pyrazol-3-yl)amino]isoin-dolin-1-one]", "IC50": "< 100"},
      {"compound": "O=C1NCc2c(-c3cnc4c(F)cccn34)ccc(Nc3ccc(N4CCC(O)CC4)cn3)c21", "note": "[I-130, 4-(8-fluoroimidazo [1,2-a]pyridin-3-yl)-7-[[5-(4-hydroxy-1-piperidyl)-2-pyridyl]amino] isoindolin-1-one]", "IC50": "< 100"},
      {"compound": "O=C1NCc2c(-c3cnn4ccccc34)ccc(Nc3ccc(N4CCC(O)CC4)cn3)c21", "note": "[I-131, 7-[[5-(4-hydroxy-1-piperidyl)-2-pyridyl]amino]-4-pyrazolo[1,5-a]pyridin-3-yl-isoindolin-1-one]", "IC50": "< 100"},
      {"compound": "O=C1NCc2c(-c3cnc4ccc(C(F)(F)F)cn34)ccc(Nc3ccc(N4CCC(O)CC4)cn3)c21", "note": "[I-132]", "IC50": "> 1000"},
      {"compound": "O=C1NCc2c(-c3cnc4cnccn34)ccc(Nc3ccc(N4CCC(O)CC4)cn3)c21", "note": "[I-133, 7-[[5-(4-hydroxy-1-piperidyl)-2-pyridyl]amino]-4-imidazo[1,2-a]pyrazin-3-yl-isoindolin-1-one]", "IC50": "< 100"},
      {"compound": "Cc1ccc2ncc(-c3ccc(Nc4ccc(N5CCC(O)CC5)cn4)c4c3CNC4=O)n2c1", "note": "[I-134, 7-[[5-(4-hydroxy-1-piperidyl)-2-pyridyl]amino]-4-(6-methylimidazo [1,2-a]pyridin-3-yl)isoindolin-1-one]", "IC50": "< 100"},
      {"compound": "Cc1cccn2c(-c3ccc(Nc4ccc(N5CCC(O)CC5)cn4)c4c3CNC4=O)cnc12", "note": "[I-135, 7-[[5-(4-hydroxy-1-piperidyl)-2-pyridyl]amino]-4-(8-methylimidazo [1,2-a]pyridin-3-yl)isoindolin-1-one]", "IC50": "< 100"},
      {"compound": "Cc1cccc2c(-c3ccc(Nc4ccc(N5CCC(O)CC5)cn4)c4c3CNC4=O)cnn12", "note": "[I-136, 7-[[5-(4-hydroxy-1-piperidyl)-2-pyripyl]amino]-4-(7-methylpyrazolo[1,5-a]pyridin-3-yl)isoindolin-1-one]", "IC50": "< 100"},
      {"compound": "Cc1ccc2c(-c3ccc(Nc4ccc(N5CCC(O)CC5)cn4)c4c3CNC4=O)cnn2c1", "note": "[I-137, 7-[[5-(4-hydroxy-1-piperidyl)-2-pyridyl]amino]-4-(6-methylpyrazolo[1,5-a]pyridin-3-yl)isoindolin-1-one]", "IC50": "< 100"},
      {"compound": "O=C1NCc2c(-c3cnc4cc(C(F)(F)F)ccn34)ccc(Nc3ccc(N4CCC(O)CC4)cn3)c21", "note": "[I-140]", "IC50": "< 100"},
      {"compound": "CN1CCN(c2ccc(Nc3cnc(-c4c(-c5ccccc5)[nH]c5ccccc45)c4c3C(=O)NC4)nc2)CC1", "note": "[I-141, 7-((5-(4-Methylpiperazin-1-yl)pyridin-2-yl)amino)-4-(2-phenyl-1H-indol-3-yl)-2,3-dihydro-1H-pyrrolo[3,4-c]pyridin-1-one]", "IC50": "< 100"},
      {"compound": "COc1ccc2ncc(-c3ccc(Nc4ccc(N5CCC(O)CC5)cn4)c4c3CNC4=O)n2c1", "note": "[I-142, 7-[[5-(4-hydroxy-1-piperidyl)-2-pyridyl]amino]-4-(6-methoxy-imidazo[1,2-a]pyridin-3-yl)-isoindolin-1-one]", "IC50": "< 100"},
      {"compound": "O=C1NCc2c(-c3cnc4n3CCOC4)ccc(Nc3ccc(N4CCC(O)CC4)cn3)c21", "note": "[I-143]", "IC50": "< 100"},
      {"compound": "Cn1ccc2c(-c3ccc(Nc4ccc(N5CCC(O)CC5)cn4)c4c3CNC4=O)ncnc21", "note": "[I-144, 7-[[5-(4-hydroxy-1-piperidyl)-2-pyridyl]amino]-4-(7-methylpyrrolo [2,3-d]pyrimidin-4-yl)isoindolin-1-one]", "IC50": "< 100"},
      {"compound": "CCNC(=O)C(C)(C)c1ccc(Nc2ccc(-c3ccnc4c3ccn4C)c3c2C(=O)NC3)nc1", "note": "[I-146, N-ethyl-2-methyl-2-[6-[[7-(1-methylpyrrolo [2,3-b]pyridin-4-yl)-3-oxo-isoindolin-4-yl]amino]-3-pyridyl]propan amide]", "IC50": "< 100"},
      {"compound": "Cn1ccc2c(-c3ccc(Nc4cccc(N5CCC(O)CC5)n4)c4c3CNC4=O)ccnc21", "note": "[I-147, 7-[[6-(4-hydroxy-1-piperidyl)-2-pyridyl]amino]-4-(1-methylpyrrolo [2,3-b]pyridin-4-yl)isoindolin-1-one]", "IC50": "100 to 1000"},
      {"compound": "Cc1ccn2c(-c3ccc(Nc4ccc(S(C)(=O)=O)cn4)c4c3CNC4=O)cnc2c1", "note": "[I-148, 4-(7-methylimidazo [1,2-a]pyridin-3-yl)-7-[(5-methylsulfony 1-2-pyridyl)amino] isoindolin-1-one]", "IC50": "< 100"},
      {"compound": "O=C1NCc2c(-c3cnc4c(C(F)(F)F)cccn34)ccc(Nc3ccc(N4CCC(O)CC4)cn3)c21", "note": "[I-149]", "IC50": "< 100"},
      {"compound": "O=C1NCc2c(-c3cnn4c3CCC(C(=O)NC3CC3)C4)ccc(Nc3ccc(N4CCC(O)CC4)cn3)c21", "note": "(stereo not shown) [I-150, N-cyclopropyl-3-[7-[[5-(4-hydroxy-1-piperidyl)-2-pyridyl]amino]-1-oxo-isoindolin-4-yl]-4,5,6,7-tetrahydropyra-zolo[1,5-a]pyridine-6-carboxamide]", "IC50": "100 to 1000"},
      {"compound": "Cc1ccn2c(-c3ccc(Nc4ccc(N5CCC(O)CC5)cn4)c4c3CNC4=O)cnc2c1F", "note": "[I-151]", "IC50": "< 100"},
      {"compound": "Cn1cnc2c(-c3ccc(Nc4ccc(N5CCC(O)CC5)cn4)c4c3CNC4=O)ccnc21", "note": "[I-152, 7-[[5-(4-hydroxy-1-piperidyl)-2-pyridyl]amino]-4-(3-methylimidazo [4,5-b]pyridin-7-yl)isoindolin-1-one]", "IC50": "< 100"},
      {"compound": "O=C1NCc2c(-c3cnc4cnccn34)ccc(Nc3ccc(N4CCOCC4)cn3)c21", "note": "[I-153, 4-imidazo[1,2-a]pyrazin-3-yl-7-[(5-morpholino-2-pyridyl)amino] isoindolin-1-one]", "IC50": "< 100"}
    ]}
  ]
}
